Measured values reported in patent publication US7384965B2, “Fused heterocyclic derivatives as PPAR modulators” (Eli Lilly and Company, priority 2003, dated 2008).

| Compound | melting point |
| --- | --- |
| CCc1cc(SCc2cccc3sc(-c4ccc(C(F)(F)F)cc4)nc23)ccc1OCC(=O)O [Example 40] | 89 to 92 °C |
| O=C(O)Cc1cccc(SCc2cccc3sc(-c4ccc(C(F)(F)F)cc4)nc23)c1 [Example 41] | 140 to 143 °C |
| O=C(O)Cc1csc2cc(OCc3cccc4sc(-c5ccc(C(F)(F)F)cc5)nc34)ccc12 [Example 42, 6-[2-(4-Trifluoromethylphenyl)benzothiazol-4-ylmethoxy]benzo[b]thiophen-3-ylacetic Acid] | 185 to 190 °C |
| O=C(O)Cc1csc2cc(SCc3cccc4sc(-c5ccc(C(F)(F)F)cc5)nc34)ccc12 [Example 43] | 168 to 170 °C |
| Cc1cc(SCc2cccc3nc(-c4ccc(C(F)(F)F)cc4)sc23)ccc1OCC(=O)O [Example 44, 2-Methyl-4-[2-(4-trifluoromethylphenyl)benzothiazol-7-ylmethylsulfanyl]phenoxyacetic Acid] | 193 to 196 °C |
| CCc1cc(SCc2cccc3nc(-c4ccc(C(F)(F)F)cc4)sc23)ccc1OCC(=O)O [Example 45, 2-Ethyl-4-[2-(4-trifluoromethylphenyl)benzothiazol-7-ylmethylsulfanyl]phenoxyacetic Acid] | 160 to 164 °C |
| Cc1cc(SCc2cccc3nc(-c4ccc(C(F)(F)F)cc4)sc23)ccc1CCC(=O)O [Example 46, 3-{2-Methyl-4-[2-(4-trifluoromethylphenyl)benzothiazol-7-ylmethylsulfanyl]phenyl}propionic Acid] | 136 to 139 °C |
| O=C(O)Cc1csc2cc(SCc3cccc4nc(-c5ccc(C(F)(F)F)cc5)sc34)ccc12 [Example 47, 6-[2-(4-Trifluoromethylphenyl)benzothiazol-7-ylmethylsulfanyl]benzo[b]thiophen-3-ylacetic Acid] | 201 to 204 °C |
| Cc1cc(SCCc2cccc3sc(-c4ccc(C(F)(F)F)cc4)nc23)ccc1OCC(=O)O [Example 48, 2-Methyl-4-{2-[2-(4-trifluoromethylphenyl)benzothiazol-4-yl]ethylsulfanyl}phenoxyacetic Acid] | 97 to 100 °C |
| Cc1cc(SCCc2cccc3sc(-c4ccc(C(F)(F)F)cc4)nc23)ccc1CCC(=O)O [Example 49, 3-(2-Methyl-4-{2-[2-(4-trifluoromethylphenyl)benzothiazol-4-yl]ethylsulfanyl}phenyl)propionic Acid] | 118 to 120 °C |
| CCc1cc(SCCc2cccc3sc(-c4ccc(C(F)(F)F)cc4)nc23)ccc1OCC(=O)O [Example 50, 2-Ethyl-4-{2-[2-(4-trifluoromethylphenyl)benzothiazol-4-yl]ethylsulfanyl}phenoxyacetic Acid] | 84 to 86 °C |
| Cc1cc(SCc2ccc3sc(-c4ccc(C(F)(F)F)cc4)nc3c2)ccc1OCC(=O)O [Example 51, 2-Methyl-4-[2-(4-trifluoromethylphenyl)benzothiazol-5-ylmethylsulfanyl]phenoxyacetic Acid] | 138 to 140 °C |
| Cc1cc(SCc2ccc3sc(-c4ccc(C(F)(F)F)cc4)nc3c2)ccc1CCC(=O)O [Example 52, 3-{2-Methyl-4-[2-(4-trifluoromethylphenyl)benzothiazol-5-ylmethylsulfanyl]phenyl}propionic Acid] | 141 to 143 °C |
| CCc1cc(SCc2ccc3sc(-c4ccc(C(F)(F)F)cc4)nc3c2)ccc1OCC(=O)O [Example 53, 2-Ethyl-4-[2-(4-trifluoromethylphenyl)benzothiazol-5-ylmethylsulfanyl]phenoxyacetic Acid] | 140 to 142 °C |
| Cc1cc(OCc2ccc3sc(-c4ccc(C(F)(F)F)cc4)nc3c2)ccc1CCC(=O)O [Example 54, 3-{2-Methyl-4-[2-(4-trifluoromethylphenyl)benzothiazol-5-ylmethoxy]phenyl}propionic Acid] | 174 to 176 °C |
| CCc1cc(OCc2ccc3sc(-c4ccc(C(F)(F)F)cc4)nc3c2)ccc1CCC(=O)O [Example 55, 3-{2-Ethyl-4-[2-(4-trifluoromethylphenyl)benzothiazol-5-ylmethoxy]phenyl}propionic Acid] | 188 to 190 °C |
| Cc1cc(SCCc2ccc3sc(-c4ccc(C(F)(F)F)cc4)nc3c2)ccc1CCC(=O)O [Example 56, 3-(2-Methyl-4-{2-[2-(4-trifluoromethylphenyl)benzothiazol-5-yl]ethylsulfanyl}phenyl)propionic Acid] | 108 to 110 °C |
| Cc1cc(SCc2ccc3nc(-c4ccc(C(F)(F)F)cc4)sc3c2)ccc1OCC(=O)O [Example 57, 2-Methyl-4-[2-(4-trifluoromethylphenyl)benzothiazol-6-ylmethylsulfanyl]phenoxyacetic Acid] | 176 to 177 °C |
| Cc1cc(SCc2ccc3nc(-c4ccc(C(F)(F)F)cc4)sc3c2)ccc1CCC(=O)O [Example 58, 3-{2-Methyl-4-[2-(4-trifluoromethylphenyl)benzothiazol-6-ylmethylsulfanyl]phenyl}propionic Acid] | 194 to 196 °C |
| CCc1cc(SCc2ccc3nc(-c4ccc(C(F)(F)F)cc4)sc3c2)ccc1OCC(=O)O [Example 59, 2-Ethyl-4-[2-(4-trifluoromethylphenyl)benzothiazol-6-ylmethylsulfanyl]phenoxyacetic Acid] | 144 to 147 °C |
| Cc1cc(OCc2ccc3nc(-c4ccc(C(F)(F)F)cc4)sc3c2)ccc1CCC(=O)O [Example 60, 3-{2-Methyl-4-[2-(4-trifluoromethylphenyl)benzothiazol-6-ylmethoxy]phenyl}propionic Acid] | 198 to 200 °C |
| CCc1cc(OCc2ccc3nc(-c4ccc(C(F)(F)F)cc4)sc3c2)ccc1CCC(=O)O [Example 61, 3-{2-Ethyl-4-[2-(4-trifluoromethylphenyl)benzothiazol-6-ylmethoxy]phenyl}propionic Acid] | 203 to 205 °C |

Results, then the molecule that gave them:

| melting point | Compound |
| --- | --- |
| 170 to 173 °C | Cc1cc(SC(C)c2ccc3nc(-c4ccc(C(F)(F)F)cc4)sc3c2)ccc1OCC(=O)O (racemic) [Example 62, (+/−)-2-Methyl-4-{1-[2-(4-trifluoromethylphenyl)benzothiazol-6-yl]ethylsulfanyl}phenoxyacetic Acid] |
| 159 to 161 °C | Cc1cc(SC(C)c2ccc3nc(-c4ccc(C(F)(F)F)cc4)sc3c2)ccc1CCC(=O)O (racemic) [Example 63, (+/−)-3-(2-Methyl-4-{1-[2-(4-trifluoromethylphenyl)benzothiazol-6-yl]ethylsulfanyl}phenyl)propionic Acid] |
| 105 to 108 °C | CCC(Sc1ccc(CCC(=O)O)c(C)c1)c1ccc2nc(-c3ccc(C(F)(F)F)cc3)sc2c1 (racemic) [Example 64, (+/−)-3-(2-Methyl-4-{1-[2-(4-trifluoromethylphenyl)benzothiazol-6-yl]propylsulfanyl}phenyl)propionic Acid] |
| 134 to 138 °C | Cc1cc(SC(C)c2cccc3nc(-c4ccc(C(F)(F)F)cc4)oc23)ccc1OCC(=O)O (racemic) [Example 79, (+/−)-2-Methyl-4-{1-[2-(4-trifluoromethylphenyl)benzooxazol-7-yl]ethylsulfanyl}phenoxyacetic Acid] |
| 128 to 130 °C | Cc1cc(SC(C)c2cccc3nc(-c4ccc(C(F)(F)F)cc4)oc23)ccc1CCC(=O)O (racemic) [Example 80, (+/−)-3-(2-Methyl-4-{1-[2-(4-trifluoromethylphenyl)benzooxazol-7-yl]ethylsulfanyl}phenyl)propionic Acid] |
| 172 to 175 °C | CCc1cc(SC(C)c2cccc3nc(-c4ccc(C(F)(F)F)cc4)oc23)ccc1OCC(=O)O (racemic) [Example 81, (+/−)-2-Ethyl-4-{1-[2-(4-trifluoromethylphenyl)benzooxazol-7-yl]ethylsulfanyl}phenoxyacetic Acid] |
| 195 to 198 °C | CC(Sc1ccc2c(CC(=O)O)csc2c1)c1cccc2nc(-c3ccc(C(F)(F)F)cc3)oc12 (racemic) [Example 82, (+/−)-6-{1-[2-(4-Trifluoromethylphenyl)benzooxazol-7-yl]ethylsulfanyl}benzo[b]thiophen-3-ylacetic Acid] |
| 142 to 144 °C | Cc1cc(OC(C)c2cccc3nc(-c4ccc(C(F)(F)F)cc4)oc23)ccc1CCC(=O)O (racemic) [Example 83, (+/−)-3-(2-Methyl-4-{1-[2-(4-trifluoromethylphenyl)benzooxazol-7-yl]ethoxy}phenyl)propionic Acid] |
| 60 to 63 °C | CCc1cc(OC(C)c2cccc3nc(-c4ccc(C(F)(F)F)cc4)oc23)ccc1CCC(=O)O (racemic) [Example 84, (+/−)-3-(2-Ethyl-4-{1-[2-(4-trifluoromethylphenyl)benzooxazol-7-yl]ethoxy}phenyl)propionic Acid] |
| 160 to 162 °C (dec.) | Cc1cc(SCc2cccc3oc(-c4ccc(C(F)(F)F)cc4)nc23)ccc1OCC(=O)O [Example 65, 2-Methyl-4-[2-(4-trifluoromethylphenyl)benzooxazol-4-ylmethylsulfanyl]-phenoxyacetic Acid] |
| 181 to 183 °C | Cc1cc(SCc2cccc3oc(-c4ccc(C(F)(F)F)cc4)nc23)ccc1CCC(=O)O [Example 66, 3-2-Methyl-4-[2-(4-trifluoromethylphenyl)benzooxazol-4-ylmethylsulfanyl]phenylpropionic Acid] |
| 127 to 128 °C | CCc1cc(SCc2cccc3oc(-c4ccc(C(F)(F)F)cc4)nc23)ccc1OCC(=O)O [Example 67, 2-Ethyl-4-[2-(4-trifluoromethylphenyl)benzooxazol-4-ylmethylsulfanyl]phenoxyacetic Acid] |
| 180 to 182 °C | Cc1cc(SCc2cccc3nc(-c4ccc(C(F)(F)F)cc4)oc23)ccc1OCC(=O)O [Example 68, 2-Methyl-4-[2-(4-trifluoromethylphenyl)-benzooxazol-7-ylmethylsulfanyl]-phenoxyacetic Acid] |
| 155 to 157 °C | Cc1cc(SCc2cccc3nc(-c4ccc(C(F)(F)F)cc4)oc23)ccc1CCC(=O)O [Example 69, 3-{2-Methyl-4-[2-(4-trifluoromethylphenyl)benzooxazol-7-ylmethylsulfanyl]phenyl}propionic Acid] |
| 215 to 216 °C | O=C(O)Cc1csc2cc(OCc3cccc4nc(-c5ccc(C(F)(F)F)cc5)oc34)ccc12 [Example 70, 6-[2-(4-Trifluoromethylphenyl)benzooxazol-7-ylmethoxy]benzo[b]thiophen-3-ylacetic Acid] |
